Paper PMC3302206 (Biochemistry, 2012)
Values after ≈ are worked out from the molar mass of the structure shown. Ends that are not written are not given here.

Assays:
[1] = tested on: E. coli DC2; assay type: cell-based, Escherichia coli; settings: DC2, 16 h
[2] = tested on: Staphylococcus aureus UAMS-1; assay type: cell-based; settings: clinical isolate
[3] = tested on: wild type S. aureus; assay type: cell-based, Staphylococcus aureus
[4] = tested on: S. aureus mprF mutant; assay type: cell-based, Staphylococcus aureus; settings: for MIC, S. aureus mprF mutant, −C: absence of carbonate; for MIC, S. aureus mprF mutant, +C: physiological concentration of carbonate present
[5] = tested on: S. aureus mprF mutant; assay type: cell-based, Staphylococcus aureus; settings: for MBC, S. aureus mprF mutant, −C: absence of carbonate; for MBC, S. aureus mprF mutant, +C: carbonate present
[6] = tested on: wild type S. aureus Rosenbach strain; assay type: cell-based, Staphylococcus aureus; settings: 16 h
[7] = tested on: E. coli K12; assay type: cell-based, Escherichia coli; settings: wild type strain; broth microdilution, measured as described (ref 18 protocol)

Row | Compound | MIC, E. coli DC2 [1] | MIC, Staphylococcus aureus UAMS-1 [2] | MBC, WT S. aureus, +C [3] | MBC, WT S. aureus, −C [3] | MIC, S. aureus mprF mutant, −C [4] | MIC, S. aureus mprF mutant, +C [4] | MBC, S. aureus mprF mutant, −C [5] | MBC, S. aureus mprF mutant, +C [5] | MIC, WT S. aureus, +C [6] | MIC, WT S. aureus, −C [6] | MIC, E. coli K12 [7]
1 | CC[C@H](C)[C@H](NC(=O)[C@H](CCCCN)NC(=O)[C@H](CCC(=O)O)NC(=O)[C@H](CCCCN)NC(=O)[C@H](C)NC(=O)[C@H](CCCCN)NC(=O)[C@H](CCCNC(=N)N)NC(=O)[C@H](Cc1ccccc1)NC(=O)[C@H](Cc1ccccc1)NC(=O)[C@H](CC(=O)O)NC(=O)CNC(=O)[C@H](CC(C)C)NC(=O)[C@@H](N)CC(C)C)C(=O)NCC(=O)N[C@@H](CCCCN)C(=O)N[C@@H](CCC(=O)O)C(=O)N[C@@H](Cc1ccccc1)C(=O)N[C@@H](CCCCN)C(=O)N[C@@H](CCCNC(=N)N)C(=O)N[C@H](C(=O)N[C@H](C(=O)N[C@@H](CCC(N)=O)C(=O)N[C@@H](CCCNC(=N)N)C(=O)N[C@H](C(=O)N[C@@H](CCCCN)C(=O)N[C@@H](CC(=O)O)C(=O)N[C@@H](Cc1ccccc1)C(=O)N[C@@H](CC(C)C)C(=O)N[C@@H](CCCNC(=N)N)C(=O)N[C@@H](CC(N)=O)C(=O)N[C@@H](CC(C)C)C(=O)N[C@H](C(=O)N1CCC[C@H]1C(=O)N[C@@H](CCCNC(=N)N)C(=O)N[C@H](C(=O)N[C@@H](CCC(=O)O)C(=O)N[C@@H](CO)C(=O)O)[C@@H](C)O)C(C)C)[C@@H](C)CC)C(C)C)[C@@H](C)CC [LL-37A9] | 6 µM (≈ 26.9 µg/mL) |  |  |  |  |  |  |  |  |  | 
2 | CC[C@H](C)[C@H](NC(=O)[C@H](CCCCN)NC(=O)[C@H](CCC(=O)O)NC(=O)[C@H](CCCCN)NC(=O)[C@@H](NC(=O)[C@H](CCCCN)NC(=O)[C@H](CCCNC(=N)N)NC(=O)[C@H](Cc1ccccc1)NC(=O)[C@H](Cc1ccccc1)NC(=O)[C@H](CC(=O)O)NC(=O)CNC(=O)[C@H](CC(C)C)NC(=O)[C@@H](N)CC(C)C)C(C)C)C(=O)NCC(=O)N[C@@H](CCCCN)C(=O)N[C@@H](CCC(=O)O)C(=O)N[C@@H](Cc1ccccc1)C(=O)N[C@@H](CCCCN)C(=O)N[C@@H](CCCNC(=N)N)C(=O)N[C@H](C(=O)N[C@H](C(=O)N[C@@H](CCC(N)=O)C(=O)N[C@@H](CCCNC(=N)N)C(=O)N[C@H](C(=O)N[C@@H](CCCCN)C(=O)N[C@@H](CC(=O)O)C(=O)N[C@@H](Cc1ccccc1)C(=O)N[C@@H](CC(C)C)C(=O)N[C@@H](CCCNC(=N)N)C(=O)N[C@@H](CC(N)=O)C(=O)N[C@@H](CC(C)C)C(=O)N[C@H](C(=O)N1CCC[C@H]1C(=O)N[C@@H](CCCNC(=N)N)C(=O)N[C@H](C(=O)N[C@@H](CCC(=O)O)C(=O)N[C@@H](CO)C(=O)O)[C@@H](C)O)C(C)C)[C@@H](C)CC)C(C)C)[C@@H](C)CC [LL-37V9] | 12 µM (≈ 54.1 µg/mL) |  |  |  |  |  |  |  |  |  | 
3 | LLGDFFRKSKEKIGKEFKRIVQR [LL-23] | 9 µM | > 160 µM | >24 µM | >24 µM | 24 µM | 3 µM | >24 µM | 12 µM | >24 µM | >24 µM | 
4 | LLGDFFRKAKEKIGKEFKRIVQR [LL-23A9] | 9 µM |  | >24 µM | >24 µM | 6 µM | 0.35 to 0.7 µM | 6 to 12 µM | 6 µM | >24 µM | >24 µM | 
5 | CC[C@H](C)[C@H](NC(=O)[C@H](CCCCN)NC(=O)[C@H](CCC(=O)O)NC(=O)[C@H](CCCCN)NC(=O)[C@H](CO)NC(=O)[C@H](CCCCN)NC(=O)[C@H](CCCNC(=N)N)NC(=O)[C@H](Cc1ccccc1)NC(=O)[C@H](Cc1ccccc1)NC(=O)[C@H](CC(=O)O)NC(=O)CNC(=O)[C@H](CC(C)C)NC(=O)[C@@H](N)CC(C)C)C(=O)NCC(=O)N[C@@H](CCCCN)C(=O)N[C@@H](CCC(=O)O)C(=O)N[C@@H](Cc1ccccc1)C(=O)N[C@@H](CCCCN)C(=O)N[C@@H](CCCNC(=N)N)C(=O)N[C@H](C(=O)N[C@H](C(=O)N[C@@H](CCC(N)=O)C(=O)N[C@@H](CCCNC(=N)N)C(=O)N[C@H](C(=O)N[C@@H](CCCCN)C(=O)N[C@@H](CC(=O)O)C(=O)N[C@@H](Cc1ccccc1)C(=O)N[C@@H](CC(C)C)C(=O)N[C@@H](CCCNC(=N)N)C(=O)N[C@@H](CC(N)=O)C(=O)N[C@@H](CC(C)C)C(=O)N[C@H](C(=O)N1CCC[C@H]1C(=O)N[C@@H](CCCNC(=N)N)C(=O)N[C@H](C(=O)N[C@@H](CCC(=O)O)C(=O)N[C@@H](CO)C(=O)O)[C@@H](C)O)C(C)C)[C@@H](C)CC)C(C)C)[C@@H](C)CC [LL-37] |  |  |  |  |  |  |  |  |  |  | 5 µM (≈ 22.5 µg/mL)
6 | LLGDFFRKVKEKIGKEFKRIVQR [LL-23V9] | 2 µM |  | >24 µM | >24 µM | 6 µM | 0.35 to 0.7 µM | 3 to 6 µM | 6 to 12 µM | 12 µM | >24 µM | 
